In patent US20260325605A1, “INHIBITORS” (Zealand Pharma A/S, priority 2022, published 2026):
Where two headings read alike, the source gives them in different places.

Assays:
Kv1.3 = target: T1, Kv1.3 (Homo sapiens, UniProt P22001); assay: Patch clamp assay (QPatch), Kv1.3; assay type: cell-based; details: CHO cells stably expressing human Kv1.3, read-out: Potency IC50, Kv1.3
T1 construct: expressed in transfected cells
Description: (§1) Selectivity of Kv1.3 inhibitor peptides for Kv1.3 over other potassium ion channels (Kv1.1, Kv1.2 and Kv1.6) was determined using patch clamp assay.
(§2) Chinese Hamster Ovary (CHO) cell lines stably expressing exogenous human α-subunits of each potassium ion channel were grown and passaged under standard culture conditions.
(§3) The automated, chip-based planar patch clamp device QPatch® was used to quantitate the ionic currents. All recordings were made in the conventional whole-cell configuration after establishment of gigaohm seals. […] During experiments 0.1% (v/v) BSA was included as a vehicle in all external recording solutions. Currents were elicited from a holding potential of −80 mV using a voltage protocol, which shifted the voltage to 30 mV for 500 ms every 15 s.
(§4) Concentration-response relationships were established by cumulatively applying seven escalating concentrations of test sample to an individual cell with a recording period of 2 min per compound application.
(§5) The efficacy was determined as the mean charge for the last three sweeps at the end of each concentration application period from the cursor positions. The percent inhibition for each test dose application period was calculated as the reduction in mean cursor value (charge) relative to the cursor value measured at the end of the vehicle period and used to calculate the IC50 from the concentration response curve.

Kv1.1 = target: T2, Kv1.1 (Homo sapiens, UniProt Q09470); assay: Patch clamp assay (QPatch), Kv1.1; assay type: cell-based; details: for IC50: QPatch, CHO cells stably expressing human Kv1.1, read-out: Potency IC50, Kv1.1; for Selectivity Kv1.1/Kv1.3: ratio of IC50 Kv1.1/Kv1.3
T2 construct: expressed in transfected cells
Description: as §1, §2, §3, §4, §5

Kv1.2 = target: T3, Kv1.2 (Homo sapiens, UniProt P16389); assay: Patch clamp assay (QPatch), Kv1.2; assay type: cell-based; details: for IC50: QPatch, CHO cells stably expressing human Kv1.2, read-out: Potency IC50, Kv1.2; for Selectivity Kv1.2/Kv1.3: ratio of IC50 Kv1.2/Kv1.3
T3 construct: expressed in transfected cells
Description: as §1, §2, §3, §4, §5

Kv1.6 = target: T4, Kv1.6 (Homo sapiens, UniProt P17658); assay: Patch clamp assay (QPatch), Kv1.6; assay type: cell-based; details: for IC50: QPatch, CHO cells stably expressing human Kv1.6, read-out: Potency IC50, Kv1.6; for Selectivity Kv1.6/Kv1.3: ratio of IC50 Kv1.6/Kv1.3
T4 construct: expressed in transfected cells

[1] = system: human peripheral blood mononuclear cells (PBMCs); assay: Example 3b: IL-2 release from anti-CD3 stimulated human PBMCs; assay type: cell-based; details: 5 donors, anti-CD3 1 μg/ml, geometric mean, at least 6 replicates, read-out: anti-CD3 PBMC/IL-2 IC50
Description: Human peripheral blood mononuclear cells (PBMCs) were used to assess the effects of Kv1.3 inhibitor peptides on T-cell activation as determined by IL-2 release after stimulation with anti-CD3.
Human PBMCs were obtained from Precision for Medicine (Frederick, MD). Cells from 5 donors were used. Plate-bound anti-CD3 was used to stimulate bulk T cells in the PBMC preparations. Briefly, 96-well plates were coated with anti-CD3 antibody for app. 16 hours at 5° C., using 50 μl of a 1 μg/ml anti-CD3 solution diluted in PBS. Thereafter the plates were washed twice.
Peptides were subsequently diluted in medium (RPMI 1640 with Glutamax-I containing, 10% v/v Fetal Bovine Serum, 1% v/v penicillin-streptomycin Solution) and added in a volume of 50 μl. The peptides indicated in Table 4b were used at concentrations ranging from 0.3 pM to 1000 nM (half log dilutions, starting concentrations varying). Cyclosporin A (1 μg/ml) and Vm24 peptide (100 nM) were used as positive controls.
Finally, 50,000 PBMCs in the same medium were added to each well in a volume of 50 μl, giving a final volume of 100 μl per well. The plates were incubated for 20-24 hours in a 370C/5% CO2 incubator. After centrifugation of the plates, 25 μl supernatant was transferred to IL-2 detection plates (MSD Human IL-2 Tissue Culture Kit, cat #K151AHB-2) and IL-2 was measures as described by the manufacturer (Meso Scale Discovery, Rockville, Maryland, USA).
All values derive from at least 6 replicates.

[2] = system: T-cell activation in rat whole blood; assay: Example 4: IL-17A release in thapsigargin stimulated rat whole blood; assay type: cell-based, rat (Lewis or Sprague-Dawley); details: 24 Hr, at least 2 replicates, unit inferred, read-out: IC50 (inhibition of IL-17A release)
In short: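 Heparinised whole blood from naïve Lewis or Sprague-Dawley rats preincubated ≥5 min at RT with peptide, then stimulated with thapsigargin (40 μM stock added as one quarter of well volume) for 24 h at 37 °C. Supernatant IL-17A measured by ELISA; IC50 from curves normalised to stimulated and unstimulated controls, ≥2 replicates.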

[3] = system: T-cell activation in human whole blood; assay: Example 5: IFN-g, IL-2 and IL-17A release in thapsigargin stimulated human whole blood; assay type: cell-based; details: 24 Hr, at least 2 replicate experiments
Source text: Human whole blood was used to assess the potency of Kv1.3 inhibitor peptides on T-cell activation as determined by release of the cytokines IFN-g, IL-2 and IL-17A after stimulation with thapsigargin. Addition of thapsigargin activates a signalling cascade resulting in T cell proliferation and cytokine production, in which the Kv1.3 ion channel plays a key role. Activity of Kv1.3 inhibitors in human primary T cells can thus be measured in this experimental system.
Human whole blood was obtained from healthy blood donors and was collected after informed consent using Sodium Heparin blood sampling tubes (Becton, Dickinson and Company (BD), Cat #367876). Test peptides were diluted to 4× final testing concentrations in assay buffer (Dulbecco's Modified Eagle's medium (DMEM) with high glucose and GlutaMAX (3.97 mM L-alanine-L-glutamine) (Gibco Cat #61965026) supplemented with 25 mM HEPES buffer, 1 mM Sodium Pyruvate, 100 units/ml Penicillin, 100 μg/ml Streptomycin and 0.05% Casein from bovine milk (Sigma-Aldrich Cat #C4765)) and 25 μl was added to wells of a 96 well tissue culture plate. Then 50 μl human whole blood was added and incubated for minimum 5 minutes at room temperature to allow compound binding. Then 25 μl of 40 μM thapsigargin diluted in assay buffer was added to all wells of the assay plates to activate the cells, followed by incubation for 24 Hr at 37° C./5% CO2 in a humidified box. The assay plates were centrifuged for 10 min at 300 g at 4° C. and the supernatants were transferred to new plates. The concentrations of IFN-g, IL-2 and IL-17A released to the supernatants were measured using a tri-plex human cytokine detection kit (MSD Human U-Plex IFN-g, IL-2 and IL-17A kit; Meso Scale Discovery Cat #K15067L-2) and all three cytokines were measured using a MSD MESO QuickPlex SQ 120 instrument as described by the manufacturer (Meso Scale Discovery, Rockville, Maryland, USA).
To determine the potency of inhibition for the compounds, the cytokine concentration data were fitted using a three parameter logistic dose response model based on the formula Y=Bottom+(Top−Bottom)/(1+IC50/X), where Y is measured cytokine concentrations, X is compound concentrations and Top, bottom and IC50 are parameters fitted using the software Graphpad Prism version 5.04. The IC50 value calculated from the concentration response curve represents the compound concentration that gives an inhibition response halfway between the basal (Bottom) response and the maximal (Top) response.
All values are derived from at least 2 replicate experiments. All of the tested Kv1.3 blockers were able to inhibit cytokine production from human T cells present in human whole blood that was stimulated with thapsigargin.

[4] = Example 6: Pharmacokinetic characterisation after s.c. administration; assay type: in vivo, rat (Sprague Dawley or Wistar); details: rat, 70 nmol/kg; for AUCINF / Cmax: plasma; for T1/2: plasma terminal elimination half-life
Description: Sprague Dawley or Wistar rats (males with a body weight of approximately 250-350 g) were given a single subcutaneous (s.c.) injection of each peptide to be tested.
Following s.c. administration of the selected peptides (dose 70 nmol/kg, dosing volume either 2 or 5 mL/kg), blood samples were drawn at 15 min, 30 min, 45 min, 60 min, 90 min, 2 h, 3 h, 4 h post-dose. At each sampling time point, samples from the rats were drawn by sublingual bleeding or by tail cut. After last sampling the rats were sacrificed by O2/CO2 anaesthesia. The dosing vehicle was 10 mM phosphate, 0.8% NaCl, 0.05% Polysorbate 20 (pH 6.0).
Plasma samples were analyzed after solid phase extraction (SPE) by liquid chromatography mass spectrometry (LC-MS/MS). Mean plasma concentrations were used for calculation of the pharmacokinetic parameters using the non-compartmental approach in Phoenix WinNonlin 6.4 or a later version. […]. AUCinf is the area under the plasma concentration−time curve extrapolated to infinity (AUCinf=AUClast+Clast/λz, where Clast is the last observed plasma concentration). Cmax is the maximum observed concentration, occurring at Tmax.

[5] = system: human peripheral blood mononuclear cells (PBMCs); assay: Example 3a: IL-2 release from anti-CD3 stimulated human PBMCs; assay type: cell-based; details: for IC50: human PBMCs, 5 donors, anti-CD3 0.5 μg/mL, geometric mean, at least 4 replicates, read-out: anti-CD3 PBMC/ IL-2 IC50
Description: Human peripheral blood mononuclear cells (PBMCs) were used to assess the effects of Kv1.3 inhibitor peptides on T-cell activation as determined by IL-2 (cytokine) release after stimulation with anti-CD3.
Human PBMCs were obtained from Precision for Medicine (Frederick, MD). Cells from 5 donors were used. Plate-bound anti-CD3 was used to stimulate bulk T cells in the PBMC preparations. Briefly, 96-well plates were coated with anti-CD3 antibody for 2 hrs at 37° C., using 50 μL of a 0.5 μg/mL anti-CD3 solution diluted in 1×PBS. Thereafter the plates were washed twice.
Cyclosporin A (1 ug/ml) and Vm24 peptide (100 nM) were used as positive controls. Finally, 1×10^5 PBMCs were added to each well in a volume of 100 μL, giving a final volume of 200 μL per well. The plates were incubated for 20-24 hours in a 37° C./5% CO2 incubator. After centrifugation of the plates, 25 μl supernatant was transferred to IL-2 detection plates (MSD Human IL-2 Tissue Culture Kit, cat #K151AHB-2) and IL-2 was measures as described by the manufacturer (Meso Scale Discovery, Rockville, Maryland, USA).
All values derive from at least 4 replicates.

T3 sequence (P16389 whole entry): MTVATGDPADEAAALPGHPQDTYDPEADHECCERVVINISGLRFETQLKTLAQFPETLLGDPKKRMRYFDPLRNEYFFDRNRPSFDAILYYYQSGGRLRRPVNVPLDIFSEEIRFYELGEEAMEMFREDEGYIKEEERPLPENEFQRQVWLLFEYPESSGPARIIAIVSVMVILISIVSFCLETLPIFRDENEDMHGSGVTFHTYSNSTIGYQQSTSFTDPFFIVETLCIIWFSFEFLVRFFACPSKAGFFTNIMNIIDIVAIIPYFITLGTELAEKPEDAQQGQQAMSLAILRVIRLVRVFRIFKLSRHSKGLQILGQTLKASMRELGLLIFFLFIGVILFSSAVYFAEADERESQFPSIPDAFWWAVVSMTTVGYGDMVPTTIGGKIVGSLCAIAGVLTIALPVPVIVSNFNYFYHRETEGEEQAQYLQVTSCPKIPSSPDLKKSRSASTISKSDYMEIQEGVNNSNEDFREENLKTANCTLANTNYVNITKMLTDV
T1 sequence (P22001 whole entry): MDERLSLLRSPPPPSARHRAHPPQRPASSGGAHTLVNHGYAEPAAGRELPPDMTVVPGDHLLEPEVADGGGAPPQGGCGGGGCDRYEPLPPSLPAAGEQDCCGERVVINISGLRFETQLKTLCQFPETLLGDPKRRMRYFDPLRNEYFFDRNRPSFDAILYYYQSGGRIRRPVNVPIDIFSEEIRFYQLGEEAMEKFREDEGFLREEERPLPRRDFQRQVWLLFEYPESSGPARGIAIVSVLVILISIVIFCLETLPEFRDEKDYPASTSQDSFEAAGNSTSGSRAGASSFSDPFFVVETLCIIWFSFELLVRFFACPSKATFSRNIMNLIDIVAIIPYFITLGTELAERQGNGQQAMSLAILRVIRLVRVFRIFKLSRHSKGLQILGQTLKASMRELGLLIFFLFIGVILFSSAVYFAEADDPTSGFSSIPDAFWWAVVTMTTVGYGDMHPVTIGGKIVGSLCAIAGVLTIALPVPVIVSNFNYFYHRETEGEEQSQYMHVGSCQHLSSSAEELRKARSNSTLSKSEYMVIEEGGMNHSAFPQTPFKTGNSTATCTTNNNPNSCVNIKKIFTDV
T4 sequence (P17658 whole entry): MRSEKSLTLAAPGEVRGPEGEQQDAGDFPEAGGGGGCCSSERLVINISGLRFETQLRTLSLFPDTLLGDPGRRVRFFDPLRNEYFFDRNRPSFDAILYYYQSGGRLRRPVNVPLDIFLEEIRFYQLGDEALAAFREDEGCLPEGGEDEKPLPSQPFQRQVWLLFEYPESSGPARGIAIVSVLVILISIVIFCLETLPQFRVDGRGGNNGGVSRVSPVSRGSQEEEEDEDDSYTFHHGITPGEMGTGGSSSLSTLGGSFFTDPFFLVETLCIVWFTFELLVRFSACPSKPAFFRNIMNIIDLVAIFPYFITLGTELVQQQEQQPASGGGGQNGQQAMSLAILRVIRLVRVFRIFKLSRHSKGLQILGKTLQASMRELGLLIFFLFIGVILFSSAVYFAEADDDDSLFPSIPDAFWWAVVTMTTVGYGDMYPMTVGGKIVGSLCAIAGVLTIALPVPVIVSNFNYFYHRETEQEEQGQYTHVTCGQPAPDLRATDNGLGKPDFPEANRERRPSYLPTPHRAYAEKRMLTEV
T2 sequence (Q09470 whole entry): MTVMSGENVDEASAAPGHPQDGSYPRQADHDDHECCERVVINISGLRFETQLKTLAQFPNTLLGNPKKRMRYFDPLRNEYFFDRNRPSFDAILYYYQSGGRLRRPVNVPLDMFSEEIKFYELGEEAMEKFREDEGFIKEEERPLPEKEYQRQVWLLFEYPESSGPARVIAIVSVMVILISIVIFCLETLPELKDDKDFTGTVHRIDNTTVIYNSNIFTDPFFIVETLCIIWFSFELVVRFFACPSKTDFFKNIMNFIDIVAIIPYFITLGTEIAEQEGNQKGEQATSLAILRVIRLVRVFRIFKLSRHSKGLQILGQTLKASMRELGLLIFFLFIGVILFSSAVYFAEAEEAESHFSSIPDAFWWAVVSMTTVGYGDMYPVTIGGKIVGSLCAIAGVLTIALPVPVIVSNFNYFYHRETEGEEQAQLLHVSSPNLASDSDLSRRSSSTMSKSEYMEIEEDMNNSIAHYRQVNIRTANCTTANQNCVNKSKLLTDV

Substance | IC50 (Kv1.3) [nM] | IC50 (Kv1.1) [nM] | Selectivity Kv1.1/Kv1.3 (Kv1.1) | IC50 (Kv1.2) [nM] | Selectivity Kv1.2/Kv1.3 (Kv1.2) | IC50 (Kv1.6) [nM] | Selectivity Kv1.6/Kv1.3 (Kv1.6) | IC50 [1] [nM] | IC50 [2] [nM] | IC50 ([3]; read-out: Average IC50, IFN-g) [nM] | IC50 ([3]; read-out: Average IC50, IL-2) [nM] | IC50 ([3]; read-out: Average IC50, IL-17A) [nM] | AUCINF [4] [µM·h] | Cmax [4] [nM] | T1/2 [4] [min] | IC50 [5] [nM] | comparison of IC50 (IL-2 secretion) with ShK186 / Moka1 ([5]; in words)
H-NMDMRC(1)SASVEC(2)KQKC(3)LKAIGSIFGKC(1)MNKKC(2)KC(3)YPR-OH [Peptide 3] | 0.27 | > 3000 | >11300 | 409 | 1540 | > 3000 | >11300 | 0.06 | 1 | 0.058 | 0.022 | 0.044 | 0.0839 | 36.9 | 59.4 |  | 
H-NMDMRC(1)SASVEC(2)KQKC(3)LKAIGSRFGKC(1)MNKKC(2)KC(3)YPR-NH2 [Peptide 36] | 0.2 | > 3000 | >15000 | 18 | 88 | 192 | 963 |  | 2.5 |  |  |  |  |  |  | 0.1 | 
H-QMDMRC(1)SASVEC(2)KQKC(3)LKAIGSIFGKC(1)MNKKC(2)KC(3)YPR-OH [Peptide 1] | 0.38 | > 3000 | >7900 | 518 | 1364 | > 3000 | >7900 | 0.09 | 0.17 |  |  |  |  |  |  |  | 
H-NMDMRC(1)SASVEC(2)KQKC(3)LAAIGSIFGKC(1)MNKKC(2)KC(3)YPR-NH2 [Peptide 53] | 0.11 | > 3000 | >27500 | 88 | 803 | > 3000 | >27500 |  | 0.69 | 0.11 | 0.083 | 0.26 | 0.0485 | 31.2 | 53.4 |  | 
H-NMDMRC(1)SASVEC(2)KQKC(3)LKAIGSIFGKC(1)MNKKC(2)KC(3)YPRRRTA-NH2 [Peptide 24] | 0.15 | 626 | 4280 | 28 | 191 | 215 | 1472 | 0.06 | 0.57 |  |  |  |  |  |  |  | 
H-P[Nle]E[Nle]RC(1)SASVEC(2)AQKC(3)LAAIGSIFGKC(1)[Nle]NKKC(2)KC(3)YPR-OH [Peptide 107] | 0.55 | > 3000 | >5500 | > 3000 | 5500 | > 3000 | >5500 |  | 1.2 |  |  |  | 0.1766 | 68.4 | 81.6 |  | 
H-C(1)SASVEC(2)KQKC(3)LKAIGSIFGKC(1)[Nle]NKKC(2)KC(3)YPR-NH2 [Peptide 108] | 0.43 | > 3000 | >7000 | > 3000 | >7000 | > 3000 | >7000 |  | 1.6 | 0.081 | 0.12 | 0.23 |  |  |  |  | 
H-N[Nle]D[Nle]RC(1)SASVEC(2)KQSC(3)LKAIGSIFGKC(1)[Nle]NKKC(2)KC(3)YPR-NH2 [Peptide 49] | 0.37 | > 3000 | >8200 | > 3000 | >8200 | > 3000 | >8200 | 0.07 | 0.63 |  |  |  |  |  |  |  | 
H-NMDMRC(1)SASVEC(2)KQKC(3)LKAIGSIFGKC(1)[Nle]NKKC(2)KC(3)YPR-NH2 [Peptide 17] | 0.24 | > 3000 | >12600 | 133 | 561 | 2460 | 10360 |  |  |  |  |  |  |  |  | 0.05 | 
H-PIE[Nle]RC(1)SASVEC(2)KQKC(3)LAAIGSIFGKC(1)[Nle]NKKC(2)KC(3)YPR-OH [Peptide 105] | 0.35 | > 3000 | >8600 | 1970 | 5630 | > 3000 | >8600 |  | 0.61 |  |  |  | 0.1318 | 58.6 | 54.6 |  | 
H-NMDMRC(1)SASVEC(2)KVKC(3)LKAIGSIFGKC(1)MNKKC(2)KC(3)YPR-NH2 [Peptide 18] | 0.42 | > 3000 | >7200 | 66 | 159 | 912 | 2182 |  | 0.88 |  |  |  |  |  |  | 0.4 | 
H-INVKCSLPQQCIKPCKDAGMRFGKCMNKKCRCYS-OH [Moka1, reference compound] |  |  | >300 |  | 31 |  | >300 |  |  |  |  |  |  |  |  |  | less potent in inhibiting IL-2 secretion
H-NMDMRC(1)SASVEC(2)KQKC(3)LDAIGSIFGKC(1)MNKKC(2)KC(3)YPR-NH2 [Peptide 21] | 0.21 | > 3000 | >14300 | 99 | 471 | 2530 | 12045 |  | 1.2 |  |  |  |  |  |  | 0.1 | 
H-P[Nle]D[Nle]RC(1)SASVEC(2)KQKC(3)LKAIGSIFGKC(1)[Nle]NKKC(2)KC(3)YPR-NH2 [Peptide 42] | 0.18 | > 3000 | >17100 | 939 | 5362 | > 3000 | >17100 | 0.03 | 0.98 | 0.046 | 0.03 | 0.058 |  |  |  |  | 
